Assay results taken from publication PMC5561493 (Journal of Clinical Pharmacology, 2017).
Several values for one entry are separate records, joined by “and”; a condition that tells them apart may be missing. Equal values may be shown once. Read-outs that look alike come from different tables or passages of the source.

Experiments:
[1] = test system: cytochrome P450 enzymes; details: in decreasing order of relative contributions; cited from earlier work
[2] = 1.6 mg/m^2 dose level; cited from earlier work
[3] = 1.7 mg/m^2 dose level; cited from earlier work
[4] = in vitro transport studies; ref Takeda, data on file; cited from earlier work
[5] = test system: CYP3A; details: coadministration of ketoconazole; cited from earlier work
[6] = test system: CYP2C19; details: cited from earlier work
[7] = adult patients, cited from earlier work
[8] = test system: efflux pumps; details: in vitro transport studies; ref Takeda, data on file; cited from earlier work
[9] = Population PK analysis of bortezomib in pediatric ALL/AML patients; format: in vivo, human; details: for half-life: human, plasma, intravenous, 1.3 mg/m^2, half-life, geometric mean (%CV)
[10] = test system: blood 20S proteasome activity; details: 1.2 and 1.6 mg/m^2 IV; cited from earlier work
[11] = varying grades of renal impairment; cited from earlier work
[12] = final population PK model, bootstrap, 1.3 mg/m^2 IV repeat dose

- clearance, geometric mean (%CV) ([9]; all patients (N = 104), 2-16 y, individual estimates, 1.3 mg/m^2 IV repeat dose): 7.79 (25%) L/(h·m^2)
- volume of distribution at steady-state, geometric mean (%CV) ([9]; all patients (N = 104), sum of V1, V2, V3): 834 (39%) L/m^2
- Interindividual variability (CV) of CL ([9]; base model): 41.2%
- Interindividual variability (CV) of Q3 ([9]; base model): 38.3%
- Interindividual variability (CV) of V1 ([9]; base model): 50.7%
- Interindividual variance of CL ([9]; final model): 29.7 %CV
- Interindividual variance of Q3 ([9]; final model): 29.8 %CV
- Interindividual variance of V1 ([9]; final model): 34.6 %CV
- V1 (central volume), population median [9, 12]: 10.0 L
- V2 (peripheral volume 1), population median [9, 12]: 32.5 L
- V3 (peripheral volume 2), population median [9, 12]: 975 L
- BSA effect on Q3 (exponent) ([9]; final population PK model, power model): 0.75
- half-life ([9]; α disposition phase, all patients (N = 104)): 0.103 h
- half-life ([9]; β disposition phase, all patients (N = 104)): 1.58 h
- half-life ([9]; γ (terminal/elimination) disposition phase, all patients (N = 104)): 100 h
- BSA-normalized clearance, mean (%CV) ([9]; patients 2 to 11 years old (N = 62)): 8.11 (25%) L/(h·m^2) and 8.11 L/(h·m^2)
- BSA-normalized clearance, mean (%CV) ([9]; patients aged 12 to 16 years (N = 42)): 7.94 (25%) L/(h·m^2) and 7.94 L/(h·m^2)
Structure (SMILES): CC(C)C[C@H](NC(=O)[C@H](Cc1ccccc1)NC(=O)c1cnccn1)B(O)O [bortezomib]
- CYP enzymes mediating hepatic microsomal metabolism [1]: primary involvement of CYPs 3A4, 2C19, and 1A2
- dose-limiting toxicities [2]: 2 dose‐limiting toxicities of thrombocytopenia
- dose-limiting toxicities [3]: Two dose‐limiting toxicities (grade 3 confusion and grade 4 hypotension with fever)
- apparent permeability [4]: high apparent permeability
- increase in bortezomib area under the concentration-time curve [5]: 35%
- effect of omeprazole coadministration on bortezomib PK [6]: did not alter bortezomib PK
- BSA-normalized clearance, mean (%CV) ([7]; 1.0 mg/m^2 dose): 12.9 (70%) L/(h·m^2)
- BSA-normalized clearance, mean (%CV) ([7]; 1.3 mg/m^2 dose): 14.9 (63%) L/(h·m^2)
- substrate for efflux pumps [8]: not a substrate for efflux pumps
- inhibition of blood 20S proteasome activity [10]: Dose‐dependent inhibition
- time of maximal inhibition of blood 20S proteasome activity after dosing [10]: ≤ 1 h
- effect of renal impairment on bortezomib clearance [11]: did not alter bortezomib clearance
